Data from US5350762A, “Tetrahydrocyclopent[B]indole methanamines and related compounds” (priority 1993, dated 1994).
Where a name gives a salt, the structure may show the parent alone.

What was measured:
[1] = molecular target: T1, acetylcholinesterase (AChE) (Rattus norvegicus, UniProt P37136); assay: In vitro inhibition of acetylcholinesterase activity in rat striatum; type: biochemical, Rat (male Wistar)
T1 construct: corpora striata dissected free, weighed and homogenized in 19 volumes; from tissue; host or cells: male Wistar rat corpora striata, whole homogenate
T1 sequence (P37136 32-614): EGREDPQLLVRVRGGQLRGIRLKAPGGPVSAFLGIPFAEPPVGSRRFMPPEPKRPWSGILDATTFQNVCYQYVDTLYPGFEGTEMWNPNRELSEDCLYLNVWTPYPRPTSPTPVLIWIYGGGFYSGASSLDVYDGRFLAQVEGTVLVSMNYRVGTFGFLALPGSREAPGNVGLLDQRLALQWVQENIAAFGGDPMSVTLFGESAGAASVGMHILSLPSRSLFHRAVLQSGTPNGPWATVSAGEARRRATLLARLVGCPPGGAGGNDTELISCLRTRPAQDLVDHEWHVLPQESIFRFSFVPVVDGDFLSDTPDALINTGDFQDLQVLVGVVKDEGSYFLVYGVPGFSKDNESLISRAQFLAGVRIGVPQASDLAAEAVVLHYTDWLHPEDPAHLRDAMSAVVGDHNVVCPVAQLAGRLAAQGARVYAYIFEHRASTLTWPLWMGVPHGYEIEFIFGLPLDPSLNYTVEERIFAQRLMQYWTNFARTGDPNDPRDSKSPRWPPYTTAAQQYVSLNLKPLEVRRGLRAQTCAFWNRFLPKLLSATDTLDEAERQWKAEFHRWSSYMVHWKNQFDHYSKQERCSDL
Text: Cholinesterase Inhibition Assay
Cholinesterases are found throughout the body, both in the brain and in serum. However, only brain acetylcholinesterase (AChE) distribution is correlated with central cholinergic innervation.
In Vitro Inhibition of Acetylcholinesterase Activity in Rat Striatum
The method described below was used in this invention for assaying cholinesterase activity.
1. 0.05M Phosphate buffer, pH 7.2
(c) add (a) to (b) until pH reaches 7.2
4. […] If active, IC50 values are determined from the inhibitory activity of subsequent concentrations.
Enzyme activity is measured with the Beckman DU-50 spectrophotometer. This method can be used for IC50 determinations and for measuring kinetic constants.
Reagents are added to the blank and sample cuvettes as follows:
Blank values are determined for each run to control for non-enzymatic hydrolysis of substrate and these values are automatically subtracted by the kindata program available on kinetics soft-pac module. This program also calculates the rate of absorbance change for each cuvette.
Substrate concentration is 10 mM diluted 1:2 in assay yielding final concentration of 5 mM. DTNB concentration is 0.5 mM yielding 0.25 mM final concentration. [formula] IC50 values are calculated from log-probit analysis

[2] = tested on: monoamine oxidase type A and type B; settings: in words; reference (2), Fowler and Ross 1984; cited from earlier work
[3] = molecular target: T2, Type A monoamine oxidase (MAO-A) (Rattus norvegicus, UniProt P21396); assay: Inhibition of Type A monoamine oxidase activity in rat brain synaptosomes; type: biochemical, Rat (male Wistar); settings: [3H]-5HT substrate 200 μM, 15 min preincubation, 30 min at 37° C., pH 7.4, read-out: Inhibitory Concentration - IC50, Type-A
T2 construct: served as the tissue source for mitochondrial MAO; from tissue; host or cells: male Wistar rat whole brain minus cerebellum, P2 pellet (18,000 g)
T2 sequence (P21396 1-526): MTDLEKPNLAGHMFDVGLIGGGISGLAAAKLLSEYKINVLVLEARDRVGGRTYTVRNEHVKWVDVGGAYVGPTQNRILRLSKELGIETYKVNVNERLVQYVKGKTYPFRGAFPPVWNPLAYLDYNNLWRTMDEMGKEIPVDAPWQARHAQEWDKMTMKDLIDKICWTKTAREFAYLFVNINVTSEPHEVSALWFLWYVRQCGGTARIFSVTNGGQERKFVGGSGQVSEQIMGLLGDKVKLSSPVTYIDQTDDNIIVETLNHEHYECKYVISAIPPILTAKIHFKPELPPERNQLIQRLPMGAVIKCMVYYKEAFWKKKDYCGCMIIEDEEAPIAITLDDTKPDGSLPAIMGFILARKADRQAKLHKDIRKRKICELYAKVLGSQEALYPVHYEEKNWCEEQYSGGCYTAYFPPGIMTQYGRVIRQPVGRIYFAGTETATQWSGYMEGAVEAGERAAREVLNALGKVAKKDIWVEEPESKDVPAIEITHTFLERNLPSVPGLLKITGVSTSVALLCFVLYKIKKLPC
Text: (§1) Male Wistar rats weighing 150-250 grams were sacrificed and the brains rapidly removed.

[4] = molecular target: T3, Type B monoamine oxidase (MAO-B) (Rattus norvegicus, UniProt P19643); assay: Inhibition of Type B monoamine oxidase activity in rat brain synaptosomes; type: biochemical, Rat (male Wistar); settings: [14C]-PEA substrate 200 μM, 15 min preincubation, 30 min at 37° C., pH 7.4, read-out: Inhibitory Concentration - IC50, Type-B
T3 construct: served as the tissue source for mitochondrial MAO; from tissue; host or cells: male Wistar rat whole brain minus cerebellum, P2 pellet (18,000 g)
T3 sequence (P19643 1-520): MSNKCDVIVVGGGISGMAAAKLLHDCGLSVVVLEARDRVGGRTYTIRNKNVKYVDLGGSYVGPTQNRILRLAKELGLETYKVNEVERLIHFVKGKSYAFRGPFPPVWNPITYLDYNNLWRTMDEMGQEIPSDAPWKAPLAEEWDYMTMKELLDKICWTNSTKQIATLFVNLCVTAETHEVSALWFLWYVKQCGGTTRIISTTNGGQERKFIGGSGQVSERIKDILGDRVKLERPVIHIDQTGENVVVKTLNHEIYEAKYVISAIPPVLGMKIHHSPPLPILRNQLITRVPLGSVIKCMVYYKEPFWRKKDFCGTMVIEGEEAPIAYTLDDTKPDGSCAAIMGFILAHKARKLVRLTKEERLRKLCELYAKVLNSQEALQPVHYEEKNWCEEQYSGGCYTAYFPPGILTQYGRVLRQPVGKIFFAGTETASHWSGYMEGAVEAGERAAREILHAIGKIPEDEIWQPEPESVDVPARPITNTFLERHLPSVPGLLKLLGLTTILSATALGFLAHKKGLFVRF
Text: as §1

Row | Structure (SMILES) | selectivity of inhibition of type A / type B monoamine oxidase [2] | IC50 [3] [µM] | IC50 [4] [µM] | other results
1 | CNC(=O)Oc1ccc2c(c1)c1c(n2C)CC(CN(C)C)C1 (centres unmarked) [1,2,3,4-Tetrahydro-2-[(dimethylamino)methyl]-4-methylcyclopent[b]indol-7-yl-methylcarbamate hydrochloride] | – | – | – | IC50 [1]: 9.6 µM
2 | CC(C)NNC(=O)c1ccncc1 [iproniazid] | nonselective inhibitors | – | – | –
3 | COc1ccc2c(c1)c1c(n2C)CC(CN)C1 (centres unmarked) [1,2,3,4-Tetrahydro-7-methoxy-4-methylcyclopent[b]indole-2-methanamine hydrochloride] | – | 59 | 287 | –
4 | CCNCC1Cc2c(n(C)c3ccc(OC)cc23)C1 (centres unmarked) [1,2,3,4-Tetrahydro-4-methyl-7-methoxy-N-ethylcyclopent[b]indole-2-methanamine maleate] | – | 182 | 713 | –
5 | C#CCN(C)CCCOc1ccc(Cl)cc1Cl [Clorgyline] | selective inhibitor of the type A enzyme | – | – | –
6 | C#CCN(C)Cc1ccccc1 [pargyline] | selective inhibitors of the type B enzyme | – | – | –
